This passage reports EC50, Intrinsic activity and inhibition results from ChEMBL document CHEMBL1133871, “4-Aminopiperidine ureas as potent selective agonists of the human beta(3)-adrenergic receptor” (Bioorg Med Chem Lett, 2001).

Usually EC50 stands for the concentration needed to bring the measured effect to its halfway point. Read a low EC50 as a more potent agent. Usually inhibition stands for the share of the control response that was lost under treatment.

Calls of active or inactive are those of the source. No cut-off for these calls is given here.

For test [1], the target named is Beta-1 adrenergic receptor (Homo sapiens, UniProt P08588). Kind of test: In vitro agonistic activity assessed by measurement of cAMP accumulation level in CHO cells expressing human beta1-AR receptor. Format: functional, cell-based. Background: Changes in cAMP serve as a functional read-out for many G protein-coupled receptors.
Test [2] addresses T1, Adrenergic receptor beta (Homo sapiens, UniProt P08588+P07550+P13945). Kind of test: In vitro intrinsic activity is given as percentage of maximal stimulation relative to isoproterenol; Not active. Format: functional.
For test [3], the target named is T2, Beta-3 adrenergic receptor (Homo sapiens, UniProt P13945). Briefly: […] of cAMP accumulation level in CHO cells expressing human beta3-AR receptor at 10 uM concentration. Format: functional, cell-based.
Target sequence in this assay (P13945 whole entry, looked up): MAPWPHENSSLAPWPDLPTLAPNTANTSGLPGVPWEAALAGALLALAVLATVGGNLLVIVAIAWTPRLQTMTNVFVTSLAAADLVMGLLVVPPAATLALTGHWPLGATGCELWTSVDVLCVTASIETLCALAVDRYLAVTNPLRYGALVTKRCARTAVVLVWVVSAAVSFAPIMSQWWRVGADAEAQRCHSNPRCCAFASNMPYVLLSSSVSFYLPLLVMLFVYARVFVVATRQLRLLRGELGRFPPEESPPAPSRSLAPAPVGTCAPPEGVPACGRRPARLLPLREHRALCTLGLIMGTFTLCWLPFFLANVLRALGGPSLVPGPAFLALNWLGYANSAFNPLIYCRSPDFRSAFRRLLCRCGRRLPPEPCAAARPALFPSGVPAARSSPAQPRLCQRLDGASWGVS
Test [4] deals with T2, Beta-3 adrenergic receptor. Kind of test: In vitro agonistic activity assessed by measurement of cAMP accumulation level in CHO cells expressing human beta3-AR receptor. It is filed as functional, cell-based.
Target sequence in this assay (P13945 whole entry): as the sequence (P13945 whole entry, looked up) above
The target of test [5] is T2, Beta-3 adrenergic receptor. Briefly: In vitro intrinsic activity is given as percentage of maximal stimulation relative to isoproterenol; In active. Format: functional.
Target sequence in this assay (P13945 whole entry): as the sequence (P13945 whole entry, looked up) above
Test [6] addresses T2, Beta-3 adrenergic receptor. Kind of test: In vitro agonistic activity assessed by measurement of cAMP accumulation level in CHO cells expressing human beta3-AR receptor; In active. Format: functional, cell-based.
Target sequence in this assay (P13945 whole entry): as the sequence (P13945 whole entry, looked up) above
For test [7], the target named is T1, Adrenergic receptor beta. Kind of test: In vitro agonistic activity against cAMP accumulation level in CHO cells expressing human beta-AR receptor. It is filed as functional, cell-based.

Chain of Beta-1 adrenergic receptor (P08588 whole entry): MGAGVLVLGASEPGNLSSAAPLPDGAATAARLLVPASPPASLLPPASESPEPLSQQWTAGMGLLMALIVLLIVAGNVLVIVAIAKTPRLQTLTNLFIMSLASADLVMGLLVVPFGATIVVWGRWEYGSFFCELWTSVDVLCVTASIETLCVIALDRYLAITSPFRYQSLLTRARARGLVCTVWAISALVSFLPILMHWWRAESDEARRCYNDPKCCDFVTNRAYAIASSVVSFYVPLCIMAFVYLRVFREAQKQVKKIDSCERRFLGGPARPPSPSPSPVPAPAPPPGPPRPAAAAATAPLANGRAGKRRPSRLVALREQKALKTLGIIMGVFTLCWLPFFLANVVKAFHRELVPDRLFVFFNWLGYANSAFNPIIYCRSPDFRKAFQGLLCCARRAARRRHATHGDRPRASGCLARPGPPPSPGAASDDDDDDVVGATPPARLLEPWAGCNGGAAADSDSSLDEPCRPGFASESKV

Molecule `O=C(NCc1ccc(F)cc1F)N1CCC(Nc2ccc(CCNC[C@H](O)COc3ccc(O)cc3)cc2)CC1` came in with an EC50 in test [1] of 460 nM. Besides, the Intrinsic activity result at Adrenergic receptor beta [2] is “inactive”.
As to `O=C(NC1CCCCC1)N1CCC(Nc2ccc(CCNC[C@H](O)COc3ccc(O)cc3)cc2)CC1`, in test [1], the EC50 turned out to be 85 nM.
`CCCCCCCCNC(=O)N1CCC(Nc2ccc(CCNC[C@H](O)COc3ccc(F)cc3)cc2)CC1`: the inhibition in test [3] worked out at 37%.
For the molecule `CNC(=O)N1CCC(Nc2ccc(CCNC[C@H](O)COc3ccc(O)cc3)cc2)CC1`, a half-maximal effect in test [1] (EC50) was put at 350 nM.
Molecule `O=C(NCCCC1CCCC1)N1CCC(Nc2ccc(CCNC[C@H](O)COc3ccc(O)cc3)cc2)CC1` registered an EC50 in test [1] of 187 nM. This EC50 is about 1.9-fold lower than that of the molecule before.
Take `CCCCCCCCNC(=O)N1CCC(Nc2ccc(CCNC[C@H](O)COc3ccc(O)c4c3CCC(=O)N4)cc2)CC1`: the half-maximal effective concentration (EC50) in test [1] worked out at 88 nM. This EC50 lies about 2.1-fold lower than the previous one.
`O=C(NCc1ccc(F)cc1)N1CCC(Nc2ccc(CCNC[C@H](O)COc3ccc(O)cc3)cc2)CC1`: the EC50 in test [1] was determined as 109 nM; in test [4], 41 nM.
`O=C(NCc1ccccc1F)N1CCC(Nc2ccc(CCNC[C@H](O)COc3ccc(O)cc3)cc2)CC1`: the EC50 in test [1] came to 260 nM. The Intrinsic activity entry at Adrenergic receptor beta [2] is “inactive”.
Take `CCCCCCCCNC(=O)N1CCC(Nc2ccc(CCNC[C@H](O)COc3cccc4[nH]c(O)nc34)cc2)CC1`: the concentration giving a half-maximal response (EC50) result in test [5] and in test [6] was “Not Active” throughout.
As for `CC(C)NC(=O)N1CCC(Nc2ccc(CCNC[C@H](O)COc3ccc(O)cc3)cc2)CC1`, the EC50 in test [1] came out at 943 nM.
In the case of `CCCCCCCCNC(=O)N1CCC(Nc2ccc(CCNC[C@H](O)COc3ccc(O)cc3)cc2)CC1`, the values for the 50% effective concentration (EC50) in test [1] and in test [4] were 610 nM and 8 nM, respectively.
In test [3], `CCCCCCCCNC(=O)N1CCC(Nc2ccc(CCNC[C@H](O)c3ccc(O)c(C(N)=O)c3)cc2)CC1` had an Intrinsic activity of 42%.
Molecule `O=C(NCc1cc(F)ccc1F)N1CCC(Nc2ccc(CCNC[C@H](O)COc3ccc(O)cc3)cc2)CC1` returned an EC50 in test [1] of 522 nM. In addition, the Intrinsic activity result at Adrenergic receptor beta [2] was “inactive”.
`CS(=O)(=O)Nc1cc([C@@H](O)CNCCc2ccc(NC3CCN(C(=O)NCc4cc(F)ccc4F)CC3)cc2)ccc1O`: the EC50 was 10 nM on Adrenergic receptor beta [7] and 2640 nM in test [1].
`NC(=O)N1CCC(Nc2ccc(CCNC[C@H](O)COc3ccc(O)cc3)cc2)CC1` showed an EC50 in test [1] of 511 nM.
`CCN(CC)C(=O)N1CCC(Nc2ccc(CCNC[C@H](O)COc3ccc(O)cc3)cc2)CC1`: the EC50 in test [1] came to 164 nM.
In the case of `O=C(NCc1ccc(Cl)cc1Cl)N1CCC(Nc2ccc(CCNC[C@H](O)COc3ccc(O)cc3)cc2)CC1`, in test [1], the EC50 worked out at 254 nM. Also, on Adrenergic receptor beta [2], the Intrinsic activity entry is “inactive”.
In test [1], `CS(=O)(=O)Nc1cc(OC[C@@H](O)CNCCc2ccc(NC3CCN(C(=O)NCc4cc(F)ccc4F)CC3)cc2)ccc1O` had an EC50 of 423 nM. That is a sub-micromolar value.
Take `O=C(NCc1c(F)cccc1F)N1CCC(Nc2ccc(CCNC[C@H](O)COc3ccc(O)cc3)cc2)CC1`: the EC50 in test [1] was determined as 750 nM. Further, the Intrinsic activity result at Adrenergic receptor beta [2] was “inactive”.
